# Patent US6951884B2, “Fluorobenzamides and uses thereof” (Hoffmann-La Roche Inc., priority 2002, dated 2005)
# Structures can show the parent of a compound that is named as a salt.
# Molecular target: T1, human MAO-B (Homo sapiens, UniProt P27338)
# T1 construct: expressed in transfected cells; host or cells: EBNA cells (transient transfection); membranes obtained by homogenisation and centrifugation at 45,000 x g
# T1 sequence (P27338 1-520): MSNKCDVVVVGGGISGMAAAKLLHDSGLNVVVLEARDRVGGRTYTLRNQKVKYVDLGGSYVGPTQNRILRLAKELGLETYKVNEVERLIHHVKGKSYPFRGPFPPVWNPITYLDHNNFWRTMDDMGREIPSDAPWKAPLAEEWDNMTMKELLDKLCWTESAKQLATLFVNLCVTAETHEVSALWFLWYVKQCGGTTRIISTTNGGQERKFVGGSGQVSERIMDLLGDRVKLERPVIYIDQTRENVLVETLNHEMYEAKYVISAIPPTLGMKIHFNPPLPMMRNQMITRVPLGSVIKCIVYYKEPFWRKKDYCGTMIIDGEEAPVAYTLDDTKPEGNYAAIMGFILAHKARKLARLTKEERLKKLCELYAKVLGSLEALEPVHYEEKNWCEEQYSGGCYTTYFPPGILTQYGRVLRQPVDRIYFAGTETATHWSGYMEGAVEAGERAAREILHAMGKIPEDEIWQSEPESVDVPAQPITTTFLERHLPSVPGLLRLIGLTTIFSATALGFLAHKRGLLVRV
# Assay: MAO-B enzymatic activity assay (spectrophotometric, tyramine/Amplex Red) on membranes of transfected EBNA cells
# Assay type: biochemical
# Settings: membranes of EBNA cells transfected with human MAO-B cDNA; substrate tyramine; 30 min preincubation at 37° C.; read-out: IC50, MAO-B inhibition
# Procedure: The cDNA's encoding human MAO-A and MAO-B were transiently transfected into EBNA cells using the procedure described by E.-J. Schlaeger and K. Christensen (Transient Gene Expression in Mammalian Cells Grown in Serum-free Suspension Culture; Cytotechnology, 15: 1-13, 1998). After transfection, cells were homogeneised by means of a Polytron homogeneiser in 20 mM Tris HCl buffer, pH 8.0, containing 0.5 mM EGTA and 0.5 mM phenylmethanesulfonyl fluoride. Cell membranes were obtained by centrifugation at 45,000×g and, after two rinsing step with 20 mM Tris HCl buffer, pH 8.0, containing 0.5 mM EGTA, membranes were eventually re-suspended in the above buffer and aliquots stored at −80° C. until use.
# MAO-A and MAO-B enzymatic activity was assayed in 96-well-plates using a spectrophotometric assay adapted from the method described by M. Zhou and N. Panchuk-Voloshina (A One-Step Fluorometric Method for the Continuous Measurement of Monoamine Oxidase Activity, Analytical Biochemistry, 253: 169-174, 1997). Briefly, membrane aliquots were incubated in 0.1 M potassium phosphate buffer, pH 7.4, for 30 min at 37° C. with or without various concentrations of the compounds. After this period, the enzymatic reaction was started by the addition of the MAO substrate tyramine together with 1 U/ml horse-radish peroxidase (Roche Biochemicals) and 80 μM N-acetyl-3,7,-dihydroxyphenoxazine (Amplex Red, Molecular Probes). The samples were further incubated for 30 min at 37° C. in a final volume of 200 μl and absorbance was then determined at a wavelength of 570 nm using a SpectraMax plate reader (Molecular Devices). Background (non-specific) absorbance was determined in the presence of 10 μM clorgyline for MAO-A or 10 μM L-deprenyl for MAO-B.
# IC50 values were determined from inhibition curves obtained using nine inhibitor concentrations in duplicate, by fitting data to a four parameter logistic equation using a computer program.
row,SMILES,IC50 [nM]
1,"COCCNC(=O)c1ccc(OCc2cccc(F)c2)cc1F [Example 6, 2-Fluoro-4-(3-fluoro-benzyloxy)-N-(2-methoxy-ethyl)-benzamide]",19.5
2,"C[C@H](NC(=O)c1ccc(OCc2ccc(C(F)(F)F)cc2)cc1F)C(N)=O [Example 12, (S)-N-(1-Carbamoyl-ethyl)-2-fluoro-4-(4-trifluoromethyl-benzyloxy)-benzamide]",25.7
3,"C[C@H](NC(=O)c1ccc(OCc2cccc(F)c2)c(F)c1)C(N)=O [Example 26, (S)-N-(1-Carbamoyl-ethyl)-3-fluoro-4-(3-fluoro-benzyloxy)-benzamide]",19
4,"C[C@@H](NC(=O)c1ccc(OCc2cccc(F)c2)c(F)c1)C(N)=O [Example 27, (R)-N-(1-Carbamoyl-ethyl)-3-fluoro-4-(3-fluoro-benzyloxy)-benzamide]",23
5,"NC(=O)[C@H](CO)NC(=O)c1ccc(OCc2ccc(C(F)(F)F)cc2)c(F)c1 [Example 34, (S)-N-(1-Carbamoyl-2-hydroxy-ethyl)-3-fluoro-4-(4-trifluoromethyl-benzyloxy)-benzamide]",25
6,"NCCNC(=O)c1ccc(OCc2ccc(C(F)(F)F)cc2)c(F)c1 [Example 36, N-(2-Amino-ethyl)-3-fluoro-4-(4-trifluoromethyl-benzyloxy)-benzamide 1:1 hydrochloride]",19
7,"C[C@H](NC(=O)c1c(F)cc(OCc2ccc(F)cc2)cc1F)C(N)=O [Example 37, (S)-N-(1-Carbamoyl-ethyl)-2,6-difluoro-4-(4-fluoro-benzyloxy)-benzamide]",22
8,"NC(=O)CNC(=O)c1c(F)cc(OCc2ccc(F)cc2)cc1F [Example 39, N-Carbamoylmethyl-2,6-difluoro-4-(4-fluoro-benzyloxy)-benzamide]",27
9,"C[C@@H](CO)NC(=O)c1c(F)cc(OCc2ccc(F)cc2)cc1F [Example 45, (S)-2,6-Difluoro-4-(4-fluoro-benzyloxy)-N-(2-hydroxy-1-methyl-ethyl)-benzamide]",23
10,"COCCNC(=O)c1c(F)cc(OCc2cccc(F)c2)cc1F [Example 51, 2,6-Difluoro-4-(3-fluoro-benzyloxy)-N-(2-methoxy-ethyl)-benzamide]",24

# Stronger by IC50, values ahead:
row,IC50 [nM],SMILES
1,18,"COCCNC(=O)c1ccc(OCc2ccc(F)cc2)c(F)c1 [Example 22, 3-Fluoro-4-(4-fluoro-benzyloxy)-N-(2-methoxy-ethyl)-benzamide]"
2,16,"NC(=O)CNC(=O)c1ccc(OCc2ccc(C(F)(F)F)cc2)c(F)c1 [Example 31, 2-[4-(4-Trifluoromethylbenzyloxy)-3-fluoro-benzamido]acetamide]"
3,15.3,"NC(=O)CNC(=O)c1ccc(OCc2cccc(F)c2)cc1F [Example 2, 2-[4-(3-Fluorobenzyloxy)-2-fluoro-benzamido]acetamide]"
4,13,"COCCNC(=O)c1c(F)cc(OCc2ccc(F)cc2)cc1F [Example 41, 2,6-Difluoro-4-(4-fluoro-benzyloxy)-N-(2-methoxy-ethyl)-benzamide]"
5,12,"NC(=O)[C@H](CO)NC(=O)c1ccc(OCc2cccc(F)c2)c(F)c1 [Example 28, (S)-N-(1-Carbamoyl-2-hydroxy-ethyl)-3-fluoro-4-(3-fluoro-benzyloxy)-benzamide]"
6,11.6,"NC(=O)[C@H](CO)NC(=O)c1ccc(OCc2cccc(F)c2)cc1F [Example 5, (S)-N-(1-Carbamoyl-2-hydroxy-ethyl)-2-fluoro-4-(3-fluoro-benzyloxy)-benzamide]"
7,11.6,"NC(=O)CNC(=O)c1ccc(OCc2ccc(F)cc2)cc1F [Example 10, 2-[4-(4-Fluorobenzyloxy)-2-fluoro-benzamido]acetamide]"
8,11,"NC(=O)[C@H](CO)NC(=O)c1ccc(OCc2ccc(F)cc2)c(F)c1 [Example 20, (S)-N-(1-Carbamoyl-2-hydroxy-ethyl)-3-fluoro-4-(4-fluoro-benzyloxy)-benzamide]"
9,8,"COC[C@H](C)NC(=O)c1ccc(OCc2cccc(F)c2)cc1F [Example 4, (S)-2-Fluoro-4-(3-fluoro-benzyloxy)-N-(2-methoxy-1-methyl-ethyl)-benzamide]"
10,7,"C[C@H](NC(=O)c1ccc(OCc2ccc(F)cc2)cc1F)C(N)=O [Example 11, (S)-N-(1-Carbamoyl-ethyl)-2-fluoro-4-(4-fluoro-benzyloxy)-benzamide]"
11,7,"C[C@H](NC(=O)c1ccc(OCc2ccc(F)cc2)c(F)c1)C(N)=O [Example 18, (S)-N-(1-Carbamoyl-ethyl)-3-fluoro-4-(4-fluoro-benzyloxy)-benzamide]"
12,5.9,"C[C@H](NC(=O)c1ccc(OCc2cccc(F)c2)cc1F)C(N)=O [Example 1, (S)-N-(1-Carbamoyl-ethyl)-2-fluoro-4-(3-fluoro-benzyloxy)-benzamide]"
13,5,"NC(=O)CNC(=O)c1ccc(OCc2cccc(F)c2)c(F)c1 [Example 25, 2-[4-(3-Fluorobenzyloxy)-3-fluoro-benzamido]acetamide]"
14,3.1,"NC(=O)CNC(=O)c1ccc(OCc2ccc(F)cc2)c(F)c1 [Example 19, 2-[4-(4-Fluorobenzyloxy)-3-fluoro-benzamido]acetamide]"
